Results: PubChem BioAssay (NCI)
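A five-concentration, 48-hour dose response in 96-well plates underlies each endpoint, interpolated linearly between surrounding concentrations. The concentration for full growth arrest is given as TGI.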

Experiments:
Assay in all cases: NCI anticancer screen, dose series, 48 h
[1] = system: SF-268 CNS
[2] = system: HL-60(TB) leukemia
[3] = system: HS 578T breast
[4] = system: SNB-19 CNS
[5] = system: HCT-116 colon
[6] = system: M14 melanoma
[7] = system: SF-539 CNS
[8] = system: EKVX NSCLC
[9] = system: BT-549 breast
[10] = system: COLO 205 colon
[11] = system: MDA-N
[12] = system: HT29 colon
[13] = system: SK-MEL-5 melanoma
[14] = system: LOX IMVI melanoma
[15] = system: OVCAR-8 ovarian
[16] = system: MCF7 breast
[17] = system: MDA-MB-435
[18] = system: A549 NSCLC
[19] = system: ACHN renal
[20] = system: MOLT-4 leukemia
[21] = system: NCI-H23 lung
[22] = system: CAKI-1 renal
[23] = system: A498 renal
[24] = system: IGROV1 ovarian
[25] = system: SK-OV-3 ovarian
[26] = system: HCT-15 colon
[27] = system: SW-620 colon
[28] = system: TK-10 renal
[29] = system: CCRF-CEM leukemia
[30] = system: UACC-257 melanoma
[31] = system: SK-MEL-28 melanoma
[32] = system: OVCAR-4 ovarian
[33] = system: OVCAR-3 ovarian
[34] = system: SN12C renal
[35] = system: NCI/ADR-RES ovarian
[36] = system: HOP-62 NSCLC
[37] = system: K-562 leukemia
[38] = system: UO-31 renal
[39] = system: SF-295 CNS
[40] = system: NCI-H460 lung
[41] = system: MALME-3M melanoma
[42] = system: 786-0 renal
[43] = system: HOP-92 NSCLC
[44] = system: OVCAR-5 ovarian
[45] = system: UACC-62 melanoma
[46] = system: PC-3 prostate
[47] = system: RPMI-8226 leukemia
[48] = system: HCC-2998 colon
[49] = system: MDA-MB-231 breast
[50] = system: SNB-75 CNS
[51] = system: SR leukemia
[52] = system: U251 CNS
[53] = system: NCI-H226 lung
[54] = system: DU-145 prostate
[55] = system: SK-MEL-2 melanoma
[56] = system: KM12 colon
[57] = system: T-47D breast

Molecule `CC(C)(C)OC(=O)C1/C(=C/CBr)CN1C(=O)OC(C)(C)C` (configuration not stated) has a TGI [1] of 21.2 µM, a TGI [2] of 7.5 µM and a TGI [3] of 49.1 µM. For the same molecule, the TGI [4] was 32.5 µM, the TGI [5] was 26.7 µM and the TGI [6] was 41.9 µM. For the same molecule, the TGI [7] was 35.9 µM, the TGI [8] was 37.3 µM and the TGI [9] was 36.2 µM. For the same molecule, the TGI [10] was 6.1 µM, the TGI [11] was 29.7 µM and the TGI [12] was > 100 µM. The TGI [13] was 27.4 µM, the TGI [14] was 11.4 µM and the TGI [15] was 44.2 µM. It also gave a TGI [16] of 28.9 µM, a TGI [17] of 29.7 µM and a TGI [18] of 38 µM. The TGI [19] was 33 µM, the TGI [20] was 26.1 µM and the TGI [21] was 28.8 µM. It also gave a TGI [22] of 30.5 µM, a TGI [23] of 31.8 µM and a TGI [24] of 26.2 µM. For the same molecule, the TGI [25] was 38.2 µM, the TGI [26] was 23.3 µM and the TGI [27] was 19.4 µM. For the same molecule, the TGI [28] was 31.3 µM, the TGI [29] was 6.22 µM and the TGI [30] was 32.3 µM. For the same molecule, the TGI [31] was 46.9 µM, the TGI [32] was 7.79 µM and the TGI [33] was 28.6 µM. The TGI [34] was 27 µM, the TGI [35] was 72.1 µM and the TGI [36] was 31.9 µM. For the same molecule, the TGI [37] was 7.54 µM, the TGI [38] was 33.1 µM and the TGI [39] was 30.5 µM. The TGI [40] was 34.9 µM, the TGI [41] was 35.4 µM and the TGI [42] was 23.2 µM. The TGI [43] was 31.8 µM, the TGI [44] was 35.2 µM and the TGI [45] was 33.4 µM. It also gave a TGI [46] of 28.1 µM, a TGI [47] of 18.1 µM and a TGI [48] of 33.1 µM.

In the case of `COc1cccc(CCn2c(N)c(C#N)c3ccc([N+](=O)[O-])cc3c2=O)c1`, the TGI [1] was > 46.4 µM, the TGI [2] was > 46.4 µM and the TGI [3] was > 46.4 µM. For the same molecule, the TGI [4] was > 100 µM, the TGI [5] was > 46.4 µM and the TGI [6] was > 31.6 µM. The TGI [8] was > 31.6 µM, the TGI [49] was > 46.4 µM and the TGI [50] was > 46.4 µM. For the same molecule, the TGI [10] was > 100 µM, the TGI [51] was 0.922 µM and the TGI [11] was > 100 µM. For the same molecule, the TGI [12] was > 31.6 µM, the TGI [52] was > 100 µM and the TGI [13] was > 100 µM. For the same molecule, the TGI [53] was > 31.6 µM, the TGI [14] was > 46.4 µM and the TGI [54] was > 46.4 µM. For the same molecule, the TGI [15] was > 46.4 µM, the TGI [16] was > 31.6 µM and the TGI [17] was > 100 µM. For the same molecule, the TGI [18] was > 46.4 µM, the TGI [55] was > 46.4 µM and the TGI [19] was > 46.4 µM. For the same molecule, the TGI [20] was > 31.6 µM, the TGI [21] was > 46.4 µM and the TGI [22] was > 46.4 µM. For the same molecule, the TGI [23] was > 100 µM, the TGI [56] was > 31.6 µM and the TGI [57] was > 46.4 µM. The TGI [24] was > 31.6 µM, the TGI [25] was > 31.6 µM and the TGI [26] was > 31.6 µM. The TGI [27] was > 100 µM, the TGI [28] was > 46.4 µM and the TGI [29] was > 31.6 µM. The TGI [30] was > 31.6 µM, the TGI [31] was > 100 µM and the TGI [32] was > 100 µM. The TGI [33] was > 31.6 µM, the TGI [34] was > 100 µM and the TGI [35] was > 46.4 µM. The TGI [36] was > 31.6 µM, the TGI [37] was 11.6 µM and the TGI [38] was > 46.4 µM. For the same molecule, the TGI [39] was > 31.6 µM, the TGI [40] was > 46.4 µM and the TGI [41] was > 31.6 µM. For the same molecule, the TGI [42] was > 46.4 µM, the TGI [43] was > 31.6 µM and the TGI [44] was > 31.6 µM. For the same molecule, the TGI [45] was > 31.6 µM, the TGI [46] was > 46.4 µM and the TGI [48] was > 46.4 µM.
